A polymer gas permeability compilation

`*C(=C(*)c1cccc(O[Si](C)(C)C(C)(C)C)c1)c1ccc(C(C)(C)C)cc1` (repeat unit) showed a CH4 permeability of 3300 Barrer, a CO2 permeability of 7200 Barrer and an H2 permeability of 3900 Barrer. It also gave an N2 permeability of 1300 Barrer and an O2 permeability of 2100 Barrer. `*Oc1ccc2c(c1)C1(CC2(C)C)CC(C)(C)c2ccc(Oc3ccc4c(c3)C(=O)N(c3cccc(N5C(=O)c6ccc(*)cc6C5=O)c3)C4=O)cc21` (repeat unit) showed a CH4 permeability of 0.155 Barrer, a CO2 permeability of 4.5 Barrer and an N2 permeability of 0.203 Barrer. The O2 permeability was 1.4 Barrer. With `*Oc1ccc(S(=O)(=O)c2ccc(Oc3c(C)cc(C(C)(C)c4cc(C)c(*)c(C)c4)cc3C)cc2)cc1` (repeat unit) the CH4 permeability was 0.522 Barrer, the CO2 permeability was 21 Barrer and the H2 permeability was 15.5 Barrer. For the same molecule, the N2 permeability was 1.06 Barrer and the O2 permeability was 5.6 Barrer. `*Oc1ccc(Oc2cccc(*)c2C#N)c(-c2cccc(C(F)(F)F)c2)c1` (repeat unit) gave a CH4 permeability of 0.09 Barrer, a CO2 permeability of 3.7 Barrer and an H2 permeability of 9.3 Barrer. It also gave an N2 permeability of 0.15 Barrer and an O2 permeability of 0.87 Barrer. Molecule `*c1ccc(C(c2ccc(-n3c(=O)c4cc5oc6cc7c(cc6oc5cc4c3=O)C3(CC(C)(C)c4cc5oc6cc8c(=O)n(*)c(=O)c8cc6oc5cc43)CC7(C)C)cc2)(C(F)(F)F)C(F)(F)F)cc1` (repeat unit) has a CH4 permeability of 27 Barrer, a CO2 permeability of 520 Barrer and an H2 permeability of 360 Barrer. It also gave an N2 permeability of 23 Barrer and an O2 permeability of 85 Barrer. For `*c1c(C)cc(-c2cc(C)c(-n3c(=O)c4cc5oc6cc7c(cc6oc5cc4c3=O)C3(C)CCC7(C)c4cc5oc6cc7c(=O)n(*)c(=O)c7cc6oc5cc43)c3ccccc23)c2ccccc12` (repeat unit), the CH4 permeability was 180 Barrer, the CO2 permeability was 3000 Barrer and the H2 permeability was 2490 Barrer. For the same molecule, the N2 permeability was 141 Barrer and the O2 permeability was 583 Barrer. With `*c1ccc(C(c2ccc(N3C(=O)c4ccc(C(c5ccc6c(c5)C(=O)N(*)C6=O)(C(F)(F)F)C(F)(F)F)cc4C3=O)cc2)(C(F)(F)F)C(F)(F)F)cc1` (repeat unit) the CH4 permeability was 1.6 Barrer, the CO2 permeability was 63.9 Barrer and the H2 permeability was 108 Barrer. For the same molecule, the N2 permeability was 3.36 Barrer and the O2 permeability was 16.2 Barrer. In the case of `*c1ccc(Oc2ccc(N3C(=O)c4ccc(Oc5ccc(C(c6ccc(Oc7ccc8c(c7)C(=O)N(*)C8=O)cc6)(C(F)(F)F)C(F)(F)F)cc5)cc4C3=O)cc2)cc1` (repeat unit), the H2 permeability is reported as 8.95 Barrer, the N2 permeability is reported as 0.084 Barrer and the O2 permeability is reported as 0.55 Barrer. With `*Oc1ccc(C(C)(C)c2ccc(Oc3c(F)c(F)c(COC(C4CCCC(C(OCc5c(F)c(F)c(*)c(F)c5F)(C(F)(F)F)C(F)(F)F)C4)(C(F)(F)F)C(F)(F)F)c(F)c3F)cc2)cc1` (repeat unit) the CH4 permeability was 0.32 Barrer, the CO2 permeability was 6.4 Barrer and the H2 permeability was 17 Barrer. For the same molecule, the N2 permeability was 0.48 Barrer and the O2 permeability was 2.1 Barrer. For `*c1ccc(-c2ccc(N3C(=O)c4ccc(C(=O)Oc5ccc(C(c6ccc(OC(=O)c7ccc8c(c7)C(=O)N(*)C8=O)cc6)(C(F)(F)F)C(F)(F)F)cc5)cc4C3=O)cc2)cc1` (repeat unit), the H2 permeability was 5.01 Barrer, the N2 permeability was 0.0517 Barrer and the O2 permeability was 0.348 Barrer. For `*c1cc(C)c2c(c1)S(=O)(=O)c1cc(N3C(=O)c4ccc(-c5ccc6c(c5)C(=O)N(*)C6=O)cc4C3=O)cc(C)c1-2` (repeat unit), the CH4 permeability was 0.195 Barrer, the CO2 permeability was 7.73 Barrer and the H2 permeability was 28.2 Barrer. For the same molecule, the N2 permeability was 0.499 Barrer and the O2 permeability was 3.29 Barrer. `*O[Si](*)(C)CCCCCCCC` (repeat unit) gave a CH4 permeability of 313 Barrer, a CO2 permeability of 932 Barrer and an N2 permeability of 88.3 Barrer. For the same molecule, the O2 permeability was 196 Barrer. Work on `*Oc1ccc(C(C)(C)c2ccc(OC(*)=O)cc2)cc1` (repeat unit) yielded a CH4 permeability of 0.331 Barrer, a CO2 permeability of 7.54 Barrer and an H2 permeability of 13 Barrer. The N2 permeability was 0.3 Barrer and the O2 permeability was 1.48 Barrer. Molecule `*C(=C(*)c1ccc(C(C)(C)C)cc1)c1ccc(O)cc1` (repeat unit) has a CH4 permeability of 46 Barrer, a CO2 permeability of 530 Barrer and an H2 permeability of 340 Barrer. The N2 permeability was 23 Barrer and the O2 permeability was 82 Barrer. Work on `*Oc1ccc(C(C)(C)c2ccc(OC(=O)c3ccc(C(=O)Oc4cc(-c5cc(*)cc6ccccc56)c5ccccc5c4)cc3)cc2)cc1` (repeat unit) yielded a CH4 permeability of 0.471 Barrer, a CO2 permeability of 9.9 Barrer and an N2 permeability of 0.364 Barrer. It also gave an O2 permeability of 2.04 Barrer. Work on `*c1ccc(Oc2ccc(N3C(=O)c4ccc(-c5ccc6c(c5)C(=O)N(*)C6=O)cc4C3=O)cc2)cc1` (repeat unit) yielded a CH4 permeability of 0.018 Barrer, a CO2 permeability of 0.921 Barrer and an H2 permeability of 3.5 Barrer. The N2 permeability was 0.0215 Barrer and the O2 permeability was 0.174 Barrer. In the case of `*C(F)(F)C(*)(F)F` (repeat unit), the CH4 permeability is reported as 10 Barrer, the CO2 permeability is reported as 12.7 Barrer and the O2 permeability is reported as 4.9 Barrer. For `*/C=C/C1CC(*)CC1[Si](C)(C)C[Si](C)(C)C` (repeat unit), the CH4 permeability was 8.5 Barrer, the CO2 permeability was 67 Barrer and the H2 permeability was 73 Barrer. It also gave an N2 permeability of 3.7 Barrer and an O2 permeability of 16 Barrer. Work on `*C(=C(*)c1cccc([Si](C)(C)C)c1)c1ccccc1` (repeat unit) yielded a CH4 permeability of 1500 Barrer, a CO2 permeability of 4700 Barrer and an H2 permeability of 2100 Barrer. The N2 permeability was 610 Barrer and the O2 permeability was 1200 Barrer. Work on `*=CC1CC(C=*)C(COS(=O)(=O)c2ccc(C)cc2)C1` (repeat unit) yielded an N2 permeability of 0.06 Barrer and an O2 permeability of 0.37 Barrer. `*c1c(C)cc(C)c(N2C(=O)c3ccc(Oc4ccc(Oc5ccc6c(c5)C(=O)N(*)C6=O)cc4)cc3C2=O)c1C` (repeat unit) showed an H2 permeability of 40 Barrer, an N2 permeability of 0.732 Barrer and an O2 permeability of 4.42 Barrer. `*CC*` (repeat unit) gave a CH4 permeability of 3.85 Barrer, a CO2 permeability of 7.32 Barrer and an N2 permeability of 0.237 Barrer. For the same molecule, the O2 permeability was 0.735 Barrer. In the case of `*C(C)=C(*)CCCCC` (repeat unit), the CH4 permeability is reported as 51 Barrer, the CO2 permeability is reported as 200 Barrer and the H2 permeability is reported as 150 Barrer. It also gave an N2 permeability of 21 Barrer and an O2 permeability of 57 Barrer. `*O[Si](C)(C)CC[Si](*)(C)C` (repeat unit) showed a CH4 permeability of 597 Barrer, a CO2 permeability of 1880 Barrer and an O2 permeability of 394 Barrer. `*c1ccc2c(c1)C(=O)n1c-2nc2ccc(Oc3ccc4c(c3)nc3n4C(=O)c4ccc(*)cc4-3)cc21` (repeat unit) showed an H2 permeability of 6.56 Barrer, an N2 permeability of 0.023 Barrer and an O2 permeability of 0.24 Barrer. Work on `*Oc1ccc(C(c2ccc(Oc3ccc(C(=O)c4ccc(C(C)(C)c5ccc(C(=O)c6ccc(*)cc6)cc5)cc4)cc3)cc2)(C(F)(F)F)C(F)(F)F)cc1` (repeat unit) yielded a CH4 permeability of 0.345 Barrer, a CO2 permeability of 8 Barrer and an H2 permeability of 22.8 Barrer. It also gave an N2 permeability of 0.44 Barrer and an O2 permeability of 2.4 Barrer. `*c1ccc(Oc2ccc(C(c3ccc(Oc4ccc(N5C(=O)c6ccc(-c7ccc8c(c7)C(=O)N(*)C8=O)cc6C5=O)cc4)cc3)(C(F)(F)F)C(F)(F)F)cc2)cc1` (repeat unit) gave a CH4 permeability of 0.18 Barrer, a CO2 permeability of 6.14 Barrer and an H2 permeability of 17.3 Barrer. For the same molecule, the N2 permeability was 0.275 Barrer and the O2 permeability was 1.6 Barrer. Molecule `*C(=C(*)c1ccc(CCCC)cc1)c1ccccc1` (repeat unit) has a CO2 permeability of 160 Barrer, an N2 permeability of 11 Barrer and an O2 permeability of 37 Barrer. `*C(=C(*)c1ccc2c(c1)C(C)(C)C(C)(C)C2(C)C)c1ccccc1` (repeat unit) showed a CH4 permeability of 24700 Barrer, a CO2 permeability of 35800 Barrer and an H2 permeability of 23600 Barrer. For the same molecule, the N2 permeability was 10200 Barrer and the O2 permeability was 12700 Barrer.
